The values that follow come from ChEMBL document CHEMBL1201862, “PubChem BioAssay data set” (2004).

Activity calls are given as the source filed them.

A short description of test [1]: blockers of HIV-1 ZM109 envelope-driven cell-cell fusion – HeLa effector, CEM target cells, luciferase, cherry-pick, dose response (AID 652058).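 Also: luciferase signal from HIV-1 Env mediated cell-cell fusion of effector and target cells.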 The test is classed as functional, cell-based.
Test [2] in a line: HIV-1 AD8 envelope cell-cell fusion blockers – cherry-pick, dose response (AID 652062).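 Also: luciferase signal from cell-cell fusion driven by HIV-1 clade B AD8 Env; potency is for inhibitors of fusion seen as a drop in luminescence.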 The class given is functional, cell-based.
Test [3] in a line: Trypanosoma cruzi growth suppression in host cells – NIH3T3 host cells, beta-gal luminescence, confirmation (AID 2044).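 Also: intracellular parasites grown in NIH/3T3 mouse fibroblasts as host cells; luminescent beta-galactosidase reporter signal from transgenic T. cruzi replicating inside host cells; inhibitors lower the luminescence signal.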 The class given is functional, cell-based.
Test [4] in a line: NIH3T3 cell viability loss – ATP luminescence, mouse fibroblasts, counter-screen, dose response (AID 2010).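 Also: cells exposed to compound for about 90 hours before reading.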 The class given is functional, cell-based. A general note: The purpose of a counterscreen is to sort out artefacts and off-target activity.
Test [5] deals with T1, Ubiquitin-conjugating enzyme E2 N (Homo sapiens, UniProt P61088).
T1 sequence (P61088 whole entry): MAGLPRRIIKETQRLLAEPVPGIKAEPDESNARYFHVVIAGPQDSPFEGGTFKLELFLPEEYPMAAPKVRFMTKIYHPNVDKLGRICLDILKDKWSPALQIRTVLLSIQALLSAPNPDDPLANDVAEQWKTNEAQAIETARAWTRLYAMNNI
The test is classed as functional.

The target of test [6] is T2, DNA repair protein RAD52 homolog (Homo sapiens, UniProt P43351).
T2 sequence (P43351 whole entry): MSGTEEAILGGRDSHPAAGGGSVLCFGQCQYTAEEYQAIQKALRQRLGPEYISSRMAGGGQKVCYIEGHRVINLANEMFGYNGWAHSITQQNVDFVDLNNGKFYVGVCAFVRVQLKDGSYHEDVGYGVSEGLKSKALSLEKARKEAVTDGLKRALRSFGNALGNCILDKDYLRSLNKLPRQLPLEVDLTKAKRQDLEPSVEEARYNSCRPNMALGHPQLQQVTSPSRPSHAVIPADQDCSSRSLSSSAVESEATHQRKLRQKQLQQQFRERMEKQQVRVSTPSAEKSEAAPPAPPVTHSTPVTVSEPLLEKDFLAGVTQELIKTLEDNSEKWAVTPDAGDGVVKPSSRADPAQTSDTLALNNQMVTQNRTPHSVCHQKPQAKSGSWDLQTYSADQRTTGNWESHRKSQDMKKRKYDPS
The class given is functional, biochemical.

In test [7] the target is T3, Polyadenylate-binding protein 1 (Homo sapiens, UniProt P11940). As to the kind of experiment: MLLE binding blockers, Cy5 peptide tracer – biochemical, fluorescence polarization, Cy5-PAM2 peptide, secondary, miRNA deadenylation inhibitor project, dose response (AID 602260). The class given is functional. The note with it: read-out: IC50_Mean. A general note: Fluorescence polarisation rises when a labelled molecule tumbles more slowly, as on binding a larger partner.

For test [8], the target named is T3, Polyadenylate-binding protein 1. Briefly: MLLE domain peptide-binding blockers, IC50 – biochemical, fluorescence polarization, FITC-PAM2 peptide, dose response (AID 602259). The test is classed as functional. To be noted: read-out: IC50_Mean.
The test system of test [9] is Streptococcus sp. 'group A'. As to the kind of experiment: Streptococcus pyogenes SK(-)GAS viability under kanamycin – luminescence, BacTiterGlo, confirmation, counter-screen for streptokinase expression inhibitor project, dose response (AID 1900). The test is classed as functional, organism-based.
For another test, the system named is Streptococcus. As to the kind of experiment: GAS UMAA2166 growth inhibition – luminescence, BacTiterGlo, counter-screen for streptokinase expression inhibitor project, dose response (AID 1915).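 Also: potency for reduction of bacterial viability or growth.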 The test is classed as functional, organism-based.
For test [10], the target named is T4, Short transient receptor potential channel 4 (Mus musculus, UniProt Q9QUQ5).
T4 sequence (Q9QUQ5 whole entry): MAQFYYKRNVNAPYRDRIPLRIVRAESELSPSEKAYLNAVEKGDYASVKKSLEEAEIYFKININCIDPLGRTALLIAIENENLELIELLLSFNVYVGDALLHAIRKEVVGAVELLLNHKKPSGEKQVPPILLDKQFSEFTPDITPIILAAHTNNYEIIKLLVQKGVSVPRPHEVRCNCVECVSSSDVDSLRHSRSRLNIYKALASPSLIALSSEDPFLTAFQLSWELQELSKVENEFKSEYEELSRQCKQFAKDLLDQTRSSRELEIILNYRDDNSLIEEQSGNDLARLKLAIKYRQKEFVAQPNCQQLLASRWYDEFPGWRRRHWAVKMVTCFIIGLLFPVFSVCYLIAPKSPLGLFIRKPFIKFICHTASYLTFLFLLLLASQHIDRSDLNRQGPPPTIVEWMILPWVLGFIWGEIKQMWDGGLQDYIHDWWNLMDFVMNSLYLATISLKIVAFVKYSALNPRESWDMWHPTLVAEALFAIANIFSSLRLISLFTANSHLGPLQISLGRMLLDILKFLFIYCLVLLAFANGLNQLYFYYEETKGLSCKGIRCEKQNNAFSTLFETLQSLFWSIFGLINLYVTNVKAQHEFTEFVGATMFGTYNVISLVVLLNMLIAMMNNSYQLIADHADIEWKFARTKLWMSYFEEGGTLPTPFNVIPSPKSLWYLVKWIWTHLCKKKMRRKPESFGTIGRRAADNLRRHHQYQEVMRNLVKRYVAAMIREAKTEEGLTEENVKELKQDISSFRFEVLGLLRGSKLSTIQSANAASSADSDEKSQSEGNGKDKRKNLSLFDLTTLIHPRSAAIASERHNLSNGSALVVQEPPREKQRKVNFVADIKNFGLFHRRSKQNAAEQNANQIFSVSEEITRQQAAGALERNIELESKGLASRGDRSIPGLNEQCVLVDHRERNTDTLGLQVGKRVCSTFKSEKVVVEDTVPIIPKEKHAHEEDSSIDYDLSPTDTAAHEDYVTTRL
Briefly: calcium entry via TRPC4 opening agents – cell-based, HEK293 TRPC4/mu-opioid, Fluo-4 calcium, dose response (AID 434937). The class given is functional.

The target in test [11] is T5, High affinity choline transporter 1 (Homo sapiens, UniProt Q9GZV3).
T5 sequence (Q9GZV3 whole entry): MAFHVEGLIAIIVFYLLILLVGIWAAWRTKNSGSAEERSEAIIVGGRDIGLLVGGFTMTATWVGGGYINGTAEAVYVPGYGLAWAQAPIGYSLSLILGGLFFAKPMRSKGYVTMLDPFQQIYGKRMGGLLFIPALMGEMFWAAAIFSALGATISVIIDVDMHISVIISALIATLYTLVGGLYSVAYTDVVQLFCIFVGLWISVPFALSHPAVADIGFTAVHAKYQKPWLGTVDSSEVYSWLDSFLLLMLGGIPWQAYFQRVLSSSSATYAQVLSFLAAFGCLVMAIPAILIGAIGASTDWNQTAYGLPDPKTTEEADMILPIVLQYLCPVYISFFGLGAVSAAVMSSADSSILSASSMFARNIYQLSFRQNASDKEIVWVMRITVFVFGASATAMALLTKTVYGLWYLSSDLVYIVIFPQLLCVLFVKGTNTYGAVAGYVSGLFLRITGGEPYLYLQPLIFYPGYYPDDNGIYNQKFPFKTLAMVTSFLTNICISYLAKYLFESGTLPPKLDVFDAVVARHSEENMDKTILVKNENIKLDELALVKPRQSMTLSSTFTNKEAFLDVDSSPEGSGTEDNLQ
As to the kind of experiment: human choline transporter blockers, potency – cell-based, 5-point CRC, membrane potential dye, dose response (AID 504840). The test is classed as functional.

Test [12] in a line: NIH-3T3 fibroblast cytotoxicity, dose response, cytotoxicity control, cell-based, fluorescence, Alamar Blue, secondary assay (AID 2327).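 Also: NIH-3T3 mouse fibroblasts cultured with fluconazole at 8 µg/mL.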 The test is classed as functional. (Alamar Blue is a resazurin reagent that responds to reducing activity.)
Test [13] is described as follows: fluconazole-exposed Candida albicans growth modulators – fluorescence, retest, confirmation (AID 2467). The class given is functional, cell-based.
The target in a further test is T6, Aminopeptidase N (Plasmodium falciparum FcB1/Columbia, UniProt O96935).
T6 sequence (O96935 whole entry): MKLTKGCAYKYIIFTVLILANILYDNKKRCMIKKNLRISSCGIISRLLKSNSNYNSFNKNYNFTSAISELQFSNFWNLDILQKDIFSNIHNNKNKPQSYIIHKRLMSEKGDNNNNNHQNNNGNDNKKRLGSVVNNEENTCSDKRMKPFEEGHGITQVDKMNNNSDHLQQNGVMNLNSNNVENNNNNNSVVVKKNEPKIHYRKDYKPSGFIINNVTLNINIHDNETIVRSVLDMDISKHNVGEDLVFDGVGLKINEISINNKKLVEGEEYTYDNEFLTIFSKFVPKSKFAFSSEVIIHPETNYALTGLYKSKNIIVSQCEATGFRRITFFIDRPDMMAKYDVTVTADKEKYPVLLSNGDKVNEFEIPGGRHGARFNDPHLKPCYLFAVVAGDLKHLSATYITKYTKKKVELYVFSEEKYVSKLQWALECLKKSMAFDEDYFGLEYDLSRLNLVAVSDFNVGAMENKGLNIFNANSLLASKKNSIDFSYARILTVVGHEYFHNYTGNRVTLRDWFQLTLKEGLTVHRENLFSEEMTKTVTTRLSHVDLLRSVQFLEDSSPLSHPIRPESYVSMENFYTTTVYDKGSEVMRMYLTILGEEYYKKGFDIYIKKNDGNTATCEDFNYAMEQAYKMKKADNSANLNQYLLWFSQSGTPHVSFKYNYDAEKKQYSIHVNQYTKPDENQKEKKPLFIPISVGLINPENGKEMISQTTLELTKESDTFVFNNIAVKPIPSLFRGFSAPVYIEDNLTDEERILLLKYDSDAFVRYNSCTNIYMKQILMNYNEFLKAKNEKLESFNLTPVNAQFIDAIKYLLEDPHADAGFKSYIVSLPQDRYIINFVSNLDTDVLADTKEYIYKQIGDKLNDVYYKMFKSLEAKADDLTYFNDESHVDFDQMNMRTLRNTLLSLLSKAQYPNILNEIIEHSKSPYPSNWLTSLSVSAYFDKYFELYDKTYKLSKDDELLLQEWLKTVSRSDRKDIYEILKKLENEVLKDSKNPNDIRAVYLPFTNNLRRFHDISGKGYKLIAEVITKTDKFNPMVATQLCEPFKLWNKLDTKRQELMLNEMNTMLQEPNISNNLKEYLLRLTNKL
Briefly: malaria alanyl aminopeptidase activity blockers – biochemical, fluorogenic H-Leu-NHMec substrate, 1536-well (AID 1445). Set-up: species or system Plasmodium falciparum 3D7, 3D7.

The nature of test [14]: Fluorescence-based cell-based high throughput dose response assay for inhibitors of the interaction of nucleotide-binding oligomerization domain containing 2 (NOD2) and the receptor-interacting serine-threonine kinase 2 (RIPK2). The class given is functional. The note with it: Homo sapiens.
The target in the next test is Paired box protein Pax-8 (Homo sapiens, UniProt Q06710). As to the kind of experiment: PAX8 transcriptional activity inhibition in RMG-I – RMG-I cells, luciferase, cherry-pick, dose response (AID 687027).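 Also: luciferase reporter driven by Pax8 target thyroperoxidase promoter measured by SteadyGlo luminescence.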 The class given is functional, cell-based.
Chain of Paired box protein Pax-8 (Q06710 whole entry): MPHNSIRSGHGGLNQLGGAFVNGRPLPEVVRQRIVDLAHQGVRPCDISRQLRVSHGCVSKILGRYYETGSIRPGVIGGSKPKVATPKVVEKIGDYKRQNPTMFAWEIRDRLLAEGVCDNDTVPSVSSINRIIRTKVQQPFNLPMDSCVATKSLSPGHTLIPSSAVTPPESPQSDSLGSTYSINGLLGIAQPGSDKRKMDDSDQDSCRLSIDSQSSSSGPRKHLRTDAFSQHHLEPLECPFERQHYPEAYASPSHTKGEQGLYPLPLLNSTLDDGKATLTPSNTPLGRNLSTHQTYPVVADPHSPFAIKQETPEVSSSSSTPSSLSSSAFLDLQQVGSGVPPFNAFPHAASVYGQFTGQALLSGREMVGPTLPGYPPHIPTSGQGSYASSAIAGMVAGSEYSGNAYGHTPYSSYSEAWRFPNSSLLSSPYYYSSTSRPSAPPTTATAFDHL

T3 sequence (P11940 whole entry): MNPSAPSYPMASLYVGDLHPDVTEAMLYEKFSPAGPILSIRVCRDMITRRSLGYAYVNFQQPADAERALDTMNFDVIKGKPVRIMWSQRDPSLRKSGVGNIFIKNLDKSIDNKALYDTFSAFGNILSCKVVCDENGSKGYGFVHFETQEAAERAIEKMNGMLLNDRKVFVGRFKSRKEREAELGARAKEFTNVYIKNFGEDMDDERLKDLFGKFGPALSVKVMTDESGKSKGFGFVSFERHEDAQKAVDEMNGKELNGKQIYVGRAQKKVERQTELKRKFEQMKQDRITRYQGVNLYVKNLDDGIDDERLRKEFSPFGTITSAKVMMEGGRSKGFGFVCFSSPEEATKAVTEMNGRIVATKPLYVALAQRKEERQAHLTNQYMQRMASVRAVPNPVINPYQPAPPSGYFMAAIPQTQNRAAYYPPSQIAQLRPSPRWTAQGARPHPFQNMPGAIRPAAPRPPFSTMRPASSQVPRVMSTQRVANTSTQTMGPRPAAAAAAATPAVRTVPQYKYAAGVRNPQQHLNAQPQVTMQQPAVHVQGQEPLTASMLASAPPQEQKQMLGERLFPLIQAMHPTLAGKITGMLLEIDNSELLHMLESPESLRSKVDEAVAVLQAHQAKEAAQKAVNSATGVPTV

For `CC(=O)C1=C(C)NC(=S)NC1c1ccccc1` (centres undefined), the AC50 was 27 µM (active) in test [1] and 45 µM (active) in test [2].
Turning to `COc1cccc(OCC(O)CN2CCN(CCN3C(=O)c4cccc5cccc(c45)C3=O)CC2)c1` (centres undefined), the EC50 in test [3] is 1.59 µM (active); in [4], > 60 µM (inconclusive). For the same compound, in [5], the IC50 is > 20 µM (inactive). In addition, in test [6], the AC50 was 18.2 µM (active).
For the compound `O=C(CSc1ccc2c(c1)OCCO2)NCCc1ccc(Cl)cc1Cl`, the IC50 in [7] and in [8] was > 66 µM (inactive) throughout.
As for `Cc1onc(-c2ccccc2)c1C(=O)NC(=S)NNC(=O)c1ccco1`, the half-maximal effective concentration (EC50) in test [9] was 2.79 µM (active); in the test on Streptococcus it was 10.6 µM (active); in test [10] it was 10.6 µM (active). In addition, the IC50 in test [11] is 15.8 µM (active).
Regarding `O=C1NC(=O)/C(=C/c2cccc3ccccc23)S1`, the EC50 in [12] was > 160 µM (inactive); in test [13], 0.76 µM (active). In [11], the IC50 was 11 µM (active).
Turning to `Cn1c(=O)[nH]c2nnc(-c3ccc(Cl)c(Cl)c3)nc2c1=O`, the IC50 in [11] is 11.2 µM (active).
Take `CCOC(=O)c1c(C)n(-c2ccc(C)cc2)c2ccc(OCC(O)CNCCCO)cc12` (centres undefined): the IC50 in test [5] was > 20 µM (inactive). The AC50 in test [6] is 6.8 µM (active).
As to `CNC12CCc3cc(OC)c(OC)c(c31)-c1cc3c(cc1C2)OCO3` (centres undefined), the AC50 in test [6] is 9.25 µM (active).
In the case of `Cc1nn2c(N3CCN(C)CC3)c3c(nc2c1-c1ccccc1)CCCC3`, the IC50 is 61.7 µM (active) at Aminopeptidase N and 10.1 µM (active) in test [11].
Regarding `C=CC(=O)N1C/C(=C/c2ccc(Cl)cc2)C(=O)/C(=C\c2ccc(Cl)cc2)C1`, the IC50 in [14] is 2.58 µM (active). In addition, the AC50 on Paired box protein Pax-8 is 1.82 µM (active).
For the compound `CC(=O)NCC/N=C(\C)c1sc2ccccc2c1O`, the IC50 in test [7] and in test [8] was > 66 µM (inactive) in each case.
Turning to `C#CC[N+]1(CC#Cc2cccc(C)c2)CCCCC1`, in [11], the IC50 is 12 µM (active).
For the compound `Cc1ccc(CN(C)C(=O)COC(=O)CSc2ccc([N+](=O)[O-])cc2)cc1`, the IC50 in test [7] and in test [8] was > 66 µM (inactive) in each case.
With `O=C(NCCCN1CCOCC1)c1ccc(Cl)c(S(=O)(=O)N2CCCCCC2)c1`, the IC50 in [11] was 12.3 µM (active).

A word on the AC50: it is the midpoint of the concentration-response curve, whichever way the signal moves. Broadly, the EC50 is the concentration that produces a half-maximal response.
